# Measurements from patent EP0432983A2 (priority 1989, dated 1991).
# Assays:
# HSV-1 [1] = test: Viral plaque reduction in HSV-1 infected CV-1 cells (Table 3); format: cell-based; design: key: (-) indicates no reduction in viral plaque production; (+) indicates a 50% reduction in viral plaque production; (++) indicates an 80% reduction in viral plaque production
# Protocol: (§1) This test is performed according to standard procedures for determination of cytotoxicity of a compound againt virus infected cells. In the present case, CV-1 (monkey kidney fibroblast cells) are infected with HSV-1 and the compounds of the invention tested against these at varying concentrations.
# (§2) The numbers show the toxicity throughout the CV-1 cells sheet. (-) indicates no reduction in viral plaque production (+) indicates a 50% reduction in viral plaque production (++) indicates an 80% reduction in viral plaque production.
# [2] = test system: CV-1 (monkey kidney fibroblast cells); test: Toxicity throughout the CV-1 cell sheet (Table 3); format: cell-based
# Protocol: as §1, §2
# CV-1 cells = test: Inhibition of growth of CV-1 cells (cytotoxic effect); format: cell-based, monkey; details: for inhibition of growth: CV-1 cells, 0.1, 0.5, 1, 5, 10 and 50 µg/ml; for IC50: Primates, 96 h, CV-1 cell growth, counted four days after seeding
# Protocol: CV-1 cells are seeded into 16 mm dia. wells at 10⁴ cells per well in 1ml aliquots of MEM10C. The following day, the medium is replaced with 0.5 ml aliquots of MEM10C containing the test concentrations of compounds AH-1 and AH-2, i. e. 0, 0.1, 0.5, 1, 5, 10 and 50 µg/ml. Determinations are all carried out in duplicate. Four days after seeding, the cells are trypsinised and counted. Percentage inhibition (%I) relative to the wells without test compound (i.e. the controls) is calculated and the IC₅₀ determined.
# [3] = test system: L-1210 cells (mouse lymphoma); test: Activity against L-1210 cells; format: cell-based
# [4] = test system: VSV (Vesicular Stomatitis Virus); format: cell-based
# HSV-1 [5] = test: Inhibition of HSV-1 replication (anti-viral effect), PFU determination; format: cell-based; details: Human alphaherpesvirus 1; HSV-1 replication in CV-1 cells, 10 PFU per cell, 24 hours after infection
# Protocol: 16mm dia. wells are seeded each with 2 x 10⁵ CV-1 cells in 1ml aliquots of MEM10C. After three days, the cells are infected with HSV-1 at 10 PFU (Plaque Forming Units) per cell. The inoculum is replaced, after adsorption for 1.5 hours, in pairs of wells with 0. 5 ml aliquots of MEM5C containing the test concentrations of each of AH-1 and AH-2. Four hours from infection, the cells from two wells are scraped into the medium and frozen to -80°C. [The average of PFU/ml of these samples forms the base for calculating net virus production]. The remaining samples are collected in pairs of wells 24 hours after infection and are also frozen to -80°C. For determination of PFU/ml, each sample is diluted to 10⁻⁸.
SMILES,reduction in viral plaque production (HSV-1 [1]; 5µl of 500µg/ml in MeOH/Acet),reduction in viral plaque production (HSV-1 [1]; 10µl of 500µg/ml in MeOH/Acet),reduction in viral plaque production (HSV-1 [1]; 20µl of 500µg/ml in MeOH/Acet),reduction in viral plaque production (HSV-1 [1]; 40µl of 500µg/ml in MeOH/Acet),toxicity throughout the CV-1 cells sheet ([2]; 5µl of 500µg/ml in MeOH/Acet),toxicity throughout the CV-1 cells sheet ([2]; 10µl of 500µg/ml in MeOH/Acet),toxicity throughout the CV-1 cells sheet ([2]; 20µl of 500µg/ml in MeOH/Acet),toxicity throughout the CV-1 cells sheet ([2]; 40µl of 500µg/ml in MeOH/Acet),inhibition of growth (CV-1 cells),IC50 (CV-1 cells) [µg/mL],activity against L-1210 cells [3],activity against VSV [4],IC50 (HSV-1 [5]) [µg/mL]
"Cc1c2c(c3c4c1C(C1OC1(C)C)CC(C)C4CCC3C)OCO2 (centres unmarked) [AH-1, Helioporin A]",-,-,+ ((+) indicates a 50% reduction in viral plaque production),++ ((++) indicates an 80% reduction in viral plaque production),0,0,0,0,no inhibition of growth,> 50,no activity,no activity,4
"Cc1cc2c(c3c1OCO3)C(C)CCC2C(C)CC(=O)CC(C)C (centres unmarked) [AH-2, Helioporin B]",-,-,+ ((+) indicates a 50% reduction in viral plaque production),++ ((++) indicates an 80% reduction in viral plaque production),0,0,0,0,no inhibition of growth,> 50,no activity,no activity,1.6
